Test results as given in patent publication US11207308B2, “Pharmaceutical compositions for combination therapy” (PRILENIA NEUROTHERAPEUTICS LTD., priority 2012, dated 2021).
Values joined by “and” are separate entries in the source; they are usually repeats but may differ in a detail not shown here. Identical values can stand only once. Like-named read-outs stand apart in the source and are kept apart here.

Assays:
Male Sprague-Dawley rats [1] = assay: Spontaneous locomotor activity, dose-response in drug-naive rats; type: in vivo, rat; settings: for Spontaneous locomotor activity, % of the vehicle control group mean: full hour of recording; for Spontaneous locomotor activity, period 15-60 minutes post dosing (in words) / Spontaneous locomotor activity, initial 15 min (in words): vs vehicle control; for Effect on spontaneous locomotor activity (in words): all doses tested, 60 min recording; for Spontaneous locomotor activity, initial 15 min (in words): initial 15 min of recording
Procedure: (§1) Rats weighed 160-180 g at the time of arrival.
(§2) The treatment groups consisted of Vehicle (saline; NaCl 0.9% v/w) and ACR16 tested at three doses (11; 33 and 100 μmol/kg).
(§3) KR104: Animals were allocated into five different treatment groups, n=4.
(§4) All compounds were injected s.c. four minutes before start of locomotor activity recording at a volume of 5 ml/kg.
During measurements of behavioural activity, a rat is put in a transparent acrylic cage with matted black floor (W×L×H, 41×41×30 cm) which in turn is placed in the activity monitor. […] Two rows are placed along the front and the side of the floor of the cage, at a 90 degree angle, and the third row is placed 10 cm above the floor to measure vertical activity. Photobeam sensors are spaced 2.5 cm apart.

striatal DOPAC [2] = assay: Striatal DOPAC tissue level (HPLC/EC), dose-response in naive rats; type: in vivo, rat; settings: mean ± SEM, percentage of vehicle control group mean
Procedure: as §1, §2, §3, §4
(§5) A digital sonifier (Branson Digital Sonifier 250-D) was used to homogenise tissue from the striatum and limbic region. […] All samples were centrifuged at 10.000 rpm for 10 minutes at +4° C. Cortex tissue was filtered in Munktell filter paper 5.5 cm quality 1 F. Tissue eluates were analysed with respect to tissue concentrations (ng/g tissue) of the monoamine transmitter substances (Norepinephrine (NA), dopamine (DA), 5-hydroxytryptamine (5-HT)) as well as their amine metabolites (normetanephrine (NM), 3-methoxytyramine (3-MT)) and acid metabolites ([…] (DOPAC), 5-hydrocyindoleacetic acid (5-HTAA), homovanillic acid (HVA)) by HPLC separations and electrochemical detection (HPLC/EC). Stock standards (DA, NA, 5-HT, 3-MT, DOPAC, HVA, HIAA, 500 μg/ml) and internal standard (AMDA 500 μg/ml) are prepared once every three months. 5-HT and 5HIAA are dissolved in milliQ water. DA, NA, DOPAC, NM, 3-MT and HVA are dissolved in 0.01 M HCl. 5-HT, 5-HIAA, NM and HVA are kept in fridge; DA, DOPAC, NA and 3-MT are kept in freezer.
(§6) Detection potentials relative to Ag/AgCl reference are 0.45 and 0.60V. […] Detection potentials relative to Ag/AgCl reference are 0.45 and 0.65V.

striatal dopamine [3] = assay: Striatal dopamine (DA) tissue level (HPLC/EC), dose-response in naive rats; type: in vivo, rat; settings: mean ± SEM, percentage of vehicle control group mean
Procedure: as §1, §2, §3, §4, §5, §6

Arc mRNA [4] = assay: Arc gene expression (Arc mRNA, real-time PCR) in striatum and frontal cortex, dose-response studies; type: in vivo, rat
Procedure: as §1, §4
Reference genes are HPRT and cyclophilin.
Correct PCR products are confirmed by agarose gel electroforesis (2%) PCR products are purified with PCR purification kit from Qiagen (Valencia, Calif., USA). All genes are sequenced at MWG, Germany.
For the data shown in FIG. 6, the reverse transcription and PCR were performed as follows:
Reversed transcription is performed by using a ThermoScript kit (Invitrogen).
cDNA of Arc and two reference genes, hypoxanthine-guanine phosphoribosyltransferase (HPRT) and cyclophilin A, was amplified by real-time PCR in either a triplex reaction (Tetrabenazine studies) or three singleplex reactions (studies with Pridopidine and haloperidol).

Male Sprague-Dawley rats [5] = settings: for Locomotor activity, % of Tetrabenazine control group mean / Locomotor activity, % of Tetrabenazine control mean: full hour of recording; for Locomotor activity in Tetrabenazine treated rats, 15-60 min (in words): 15-60 min period; for Locomotor activity in Tetrabenazine treated rats, 15-60 min (in words) / Locomotor activity in Tetrabenazine treated rats, 0-15 min (in words): combined with Tetrabenazine 0.64 mg/kg, vs Tetrabenazine control; for Effect on Tetrabenazine induced locomotor activity reduction (in words): combined with Tetrabenazine 0.64 mg/kg s.c.; for Locomotor activity in Tetrabenazine treated rats, 0-15 min (in words): first 15 min
Description: No brain tissue was collected from this experiment. […] Each activity monitor consists of a quadratic metal frame equipped with photobeam sensors. […] Each activity monitor is equipped with three rows of infrared photobeam sensors, each row consisting of 16 sensors. […] Photobeam sensors are spaced 2.5 cm apart. Each activity monitor is fitted in an identical sound and light attenuating box (W×L×H—55×55×45) containing a weak house light and a fan. The computer software is written using object oriented programming (LabVIEW™, National instruments, Austin, Tex., USA). Behavioural data from each activity monitor, representing the position (horizontal center of gravity and vertical activity) of the animal at each time, are recorded at a sampling frequency of 25 Hz and collected using a custom written LABView™ application. The data from each recording session are stored and analyzed with respect to distance travelled. Each behavioural recording session lasts 60 min, starting approximately 4 min after the injection of test compound. The results are presented as counts/60 minutes, counts/45 minutes or counts/15 minutes, in arbitrary length units. Statistical comparisons are carried out using Student's t-test against the control group.

striatal DOPAC [6] = assay: Striatal DOPAC tissue level (HPLC/EC), interaction with Tetrabenazine; settings: percentage of Tetrabenazine control group mean
striatal dopamine [7] = assay: Striatal dopamine (DA) tissue level (HPLC/EC), interaction with Tetrabenazine; settings: percentage of Tetrabenazine control group mean
Arc mRNA [8] = assay: Arc gene expression (Arc mRNA, real-time PCR) in striatum and frontal cortex, interaction with Tetrabenazine
[9] = 0.04 mg/kg s.c. together with Tetrabenazine 0.64 mg/kg
[10] = 0.12 mg/kg s.c. together with Tetrabenazine 0.64 mg/kg
[11] = 33 μmol/kg s.c. together with Tetrabenazine 0.64 mg/kg
[12] = 100 μmol/kg s.c. together with Tetrabenazine 0.64 mg/kg
[13] = 33 μmol/kg s.c. coadministered with Tetrabenazine 0.64 mg/kg
[14] = 100 μmol/kg s.c. coadministered with Tetrabenazine 0.64 mg/kg

O=C(CCCN1CCC(O)(c2ccc(Cl)cc2)CC1)c1ccc(F)cc1 [Haloperidol]
Spontaneous locomotor activity, % of the vehicle control group mean (Male Sprague-Dawley rats [1]; 0.37 mg/kg s.c.): about 35% | Spontaneous locomotor activity, % of the vehicle control group mean (Male Sprague-Dawley rats [1]; 1.1 mg/kg s.c.): about 35% | Spontaneous locomotor activity, period 15-60 minutes post dosing (in words) (Male Sprague-Dawley rats [1]): a significant effect (P<0.05) was observed for the 1.1 mg/kg dose group only | Effect on spontaneous locomotor activity (in words) (Male Sprague-Dawley rats [1]; s.c.): dose-dependent inhibitory effect on spontaneous locomotor activity | Spontaneous locomotor activity, initial 15 min (in words) (Male Sprague-Dawley rats [1]): significant reductions (P<0.05) were seen both for the 0.37 and 1.1 mg/kg haloperidol dose groups | Doses with statistically significant effects on spontaneous locomotor activity (Male Sprague-Dawley rats [1]; s.c., not at the lowest dose tested, 0.04 mg/kg): ≥ 0.12 mg/kg | DOPAC striatum, dose-response in naive rats (striatal DOPAC [2]; 0.04 mg/kg s.c.): 171 ± 35% | DOPAC striatum, dose-response in naive rats (striatal DOPAC [2]; 0.12 mg/kg s.c.): 276 ± 8 % | DOPAC striatum, dose-response in naive rats (striatal DOPAC [2]; 0.37 mg/kg s.c.): 254 ± 17 % | DOPAC striatum, dose-response in naive rats (striatal DOPAC [2]; 1.1 mg/kg s.c.): 292 ± 10 % | DA striatum, dose-response in naive rats (striatal dopamine [3]; 0.04 mg/kg s.c.): 95 ± 5% | DA striatum, dose-response in naive rats (striatal dopamine [3]; 0.12 mg/kg s.c.): 78 ± 3 % | DA striatum, dose-response in naive rats (striatal dopamine [3]; 0.37 mg/kg s.c.): 79 ± 5 % | DA striatum, dose-response in naive rats (striatal dopamine [3]; 1.1 mg/kg s.c.): 81 ± 2 % | Arc mRNA in the striatum, % of the vehicle control group mean (Arc mRNA [4]; 0.12 mg/kg s.c.): 262% | Arc mRNA in the striatum, % of the vehicle control group mean (Arc mRNA [4]; 0.37 mg/kg s.c.): 331% | Arc mRNA in the striatum, % of the vehicle control group mean (Arc mRNA [4]; 1.1 mg/kg s.c.): 409% | Cortical Arc gene expression (in words) (Arc mRNA [4]; dose-response, 0.12, 0.37 and 1.1 mg/kg s.c.): no significant effect | Locomotor activity, % of Tetrabenazine control group mean (Male Sprague-Dawley rats [5]; 0.04 mg/kg s.c. combined with Tetrabenazine 0.64 mg/kg): 51% | Locomotor activity, % of Tetrabenazine control group mean (Male Sprague-Dawley rats [5]; 0.12 mg/kg s.c. combined with Tetrabenazine 0.64 mg/kg): 41% | Locomotor activity in Tetrabenazine treated rats, 15-60 min (in words) (Male Sprague-Dawley rats [5]): the reduction was significant for the 0.12 mg/kg dose only | Effect on Tetrabenazine induced locomotor activity reduction (in words) (Male Sprague-Dawley rats [5]): further reduced locomotor activity in animals treated with Tetrabenazine | Locomotor activity in Tetrabenazine treated rats, 0-15 min (in words) (Male Sprague-Dawley rats [5]): this reducing effect was significant at both the 0.04 mg/kg (P<0.01) and the 0.12 mg/kg (P<0.05) doses | DOPAC striatum, interaction with Tetrabenazine (striatal DOPAC [6]; [9]): 187% and 187 ± 6 % | DOPAC striatum, interaction with Tetrabenazine (striatal DOPAC [6]; [10]): 218% and 218 ± 12 % | DA striatum, interaction with Tetrabenazine (striatal dopamine [7]; [9]): 79 ± 3 % | DA striatum, interaction with Tetrabenazine (striatal dopamine [7]; [10]): 87 ± 10% | Striatal Arc, % of the Tetrabenazine control group mean (Arc mRNA [8]; 0.04 mg/kg s.c. coadministered with Tetrabenazine 0.64 mg/kg): 272% | Striatal Arc, % of the Tetrabenazine control group mean (Arc mRNA [8]; 0.12 mg/kg s.c. coadministered with Tetrabenazine 0.64 mg/kg): 400% | Cortical Arc gene expression in rats co-treated with Tetrabenazine (in words) (Arc mRNA [8]; 0.04 and 0.12 mg/kg s.c. with Tetrabenazine 0.64 mg/kg): no significant effect

CCCN1CCC(c2cccc(S(C)(=O)=O)c2)CC1 [Pridopidine, 4-(3-Methanesulfonyl-phenyl)-1-propyl-piperidine]
Spontaneous locomotor activity, % of the vehicle control group mean (Male Sprague-Dawley rats [1]; 33 μmol/kg s.c.): 138% | Spontaneous locomotor activity, period 15-60 minutes post dosing (in words) (Male Sprague-Dawley rats [1]): no significant effects were observed | Effect on spontaneous locomotor activity (in words) (Male Sprague-Dawley rats [1]; s.c.): no inhibitory effect on spontaneous locomotor activity | Spontaneous locomotor activity, initial 15 min (in words) (Male Sprague-Dawley rats [1]): a significant increase (P<0.05) was seen for the 11 μmol/kg Pridopidine dose group | DOPAC striatum, dose-response in naive rats (striatal DOPAC [2]; 11 μmol/kg s.c.): 117 ± 5 % | DOPAC striatum, dose-response in naive rats (striatal DOPAC [2]; 33 μmol/kg s.c.): 178 ± 7 % | DOPAC striatum, dose-response in naive rats (striatal DOPAC [2]; 100 μmol/kg s.c.): 236 ± 17 % | DA striatum, dose-response in naive rats (striatal dopamine [3]; 11 μmol/kg s.c.): 104 ± 3% | DA striatum, dose-response in naive rats (striatal dopamine [3]; 33 μmol/kg s.c.): 101 ± 3% | DA striatum, dose-response in naive rats (striatal dopamine [3]; 100 μmol/kg s.c.): 73 ± 4 % | Arc mRNA in the frontal cortex, % of the vehicle control group mean (Arc mRNA [4]; 33 μmol/kg s.c.): 149% | Arc mRNA in the striatum, % of the control group mean (Arc mRNA [4]; 33 μmol/kg s.c.): 168% | Arc mRNA in the frontal cortex, % of the vehicle control group mean (Arc mRNA [4]; 100 μmol/kg s.c.): 222% | Arc mRNA in the striatum, % of the control group mean (Arc mRNA [4]; 100 μmol/kg s.c.): 253% | Locomotor activity, % of Tetrabenazine control mean (Male Sprague-Dawley rats [5]; 33 μmol/kg s.c. combined with Tetrabenazine 0.64 mg/kg): 135% | Locomotor activity, % of Tetrabenazine control mean (Male Sprague-Dawley rats [5]; 100 μmol/kg s.c. combined with Tetrabenazine 0.64 mg/kg): 137% | Locomotor activity in Tetrabenazine treated rats, 15-60 min (in words) (Male Sprague-Dawley rats [5]): this reversing effect reached significance for the Pridopidine 100 μmol/kg dose group | Effect on Tetrabenazine induced locomotor activity reduction (in words) (Male Sprague-Dawley rats [5]): reversed the behavioural inhibition induced by Tetrabenazine | Locomotor activity in Tetrabenazine treated rats, 0-15 min (in words) (Male Sprague-Dawley rats [5]): this reversing effect reached significance for the Pridopidine 100 μmol/kg dose group | DOPAC striatum, interaction with Tetrabenazine (striatal DOPAC [6]; [11]): 123 ± 8 ^ % | DOPAC striatum, interaction with Tetrabenazine (striatal DOPAC [6]; [12]): 155% and 155 ± 4 % | DA striatum, interaction with Tetrabenazine (striatal dopamine [7]; [11]): 91 ± 11% | DA striatum, interaction with Tetrabenazine (striatal dopamine [7]; [12]): 98 ± 8% | Frontal cortex Arc mRNA, % of the Tetrabenazine control group mean (Arc mRNA [8]; [13]): 125% | Striatal Arc, % of the Tetrabenazine control group mean (Arc mRNA [8]; [13]): 144% | Frontal cortex Arc mRNA, % of the Tetrabenazine control group mean (Arc mRNA [8]; [14]): 193% | Striatal Arc, % of the Tetrabenazine control group mean (Arc mRNA [8]; [14]): 207%
